We go through 7 compounds from US20030186950A1, “Use of n-heterocyclic substituted salicylates for inhibition of cellular uptake of cystine” (priority 2000, published 2003).

In general, IC50 refers to the concentration at which inhibition is half-maximal.

The subject of series [1] is Nb2-SFJCD1 rat lymphoma cells. The experiment in a line: Culture growth inhibition assay in Nb2-SFJCD1 lymphoma cultures. Type of series: cell-based. The conditions noted are these: for Growth-inhibitory activity: 0.1-0.3 mM (FIG. 2); for IC50: 45 h, Fischer's medium with 10.0% horse gelding serum, read-out: IC50 (mM) Average ± S.D., growth inhibition. How it is done: (§1) Nb2 lymphoma is of a pre-T cell origin. The parental line (Nb2 U17) is non-metastatic as subcutaneous implants whereas subline Nb2-SFJCD1 is highly metastatic. Nb2-SFJCD1 cultures (doubling time=12-13 hr) were maintained in Fischer's medium (Sigma-Aldrich), supplemented with 10.0% horse gelding serum (lactogen-deficient; one batch, ICN Biomedicals, Inc., Auroro, Ohio), penicillin (50 U/ml) and streptomycin (50 μg/ml). In this medium the cells grow as clumps which can be readily dispersed. Nb2 lymphoma cell lines are used by a number of laboratories; the Nb2-11 subline, is available from the European Collection of Animal Cell Cultures (ECACC) in Salisbury, U.K. The Nb2-U17 and Nb2-SJFCD1 cell lines are available from Dr. Peter W. Gout, B.C. Cancer Research Centre, Vancouver, B.C., Canada.
Nb2-SFJCD1 cells from log phase cultures were centrifuged (3.5 min at 350×g) and gently resuspended in fresh Fisher's medium containing 10% horse gelding serum. Aliquots (1.80 ml) were distributed in 12-well tissue culture plates (Linbro, Flow Laboratories, Mississauga, ON, Canada) and preincubated for 3-5 hours at 37° C. in a water-saturated 5% CO2/air atmosphere. Solutions of the drugs (200 μl portions) were then added to the cultures for a 45 hour incubation (Cin=1.0×10^5 cells/ml). Cell populations were determined using an electronic counter (Coulter Electronics, Hialeah, Fla.).

The conditions of series [2]: as reported in the literature for patients/controls undergoing treatment; cited from earlier work.
Series [3] deals with MCF-7 human breast carcinoma cell line. The experiment in a line: Cell proliferation of MCF-7 breast carcinoma cells. The format is cell-based. An excerpt: (§2) The effect of sulfasalazine on cell proliferation was subsequently assessed.
Another series deals with Nb2-U17 tumor transplant. The experiment in a line: Tumor growth inhibition in Nb rats with subcutaneous Nb2-U17 lymphoma transplants. The format is in vivo, rat. As to conditions: b.i.d.; for Average tumor size after 7 days: controls 12.6 gr. Here is the method: A colony of Nb rats is maintained in the British Columbia Cancer Research Centre Vancouver, B.C., Canada. Approximately equal portions of minced Nb2-U17 tumor tissue, developed subcutaneously in a rat following injection of cultured Nb2-U17 cells, were injected by trocar subcutaneously in the nape of the neck of groups of male Nb rats (one injection per rat), that had been lightly anesthetized with isoflurane (Abbott Laboratories Ltd., Montreal, Canada). […] 2% CMC or saline were used for controls. Drug preparation and administration were carried out under subdued light conditions. Food and water were provided ad libitum. Tumor size, body weight and general health of the rats were monitored twice a day. Tumor size was measured using calipers and expressed in grams using the formula: π/6×length×width×height in cm. […] On necropsy the animals were examined for evidence of metastatic spread with particular attention to tissues such as kidneys, liver and spleen, the target tissues of metastatic Nb2 lymphoma cells. Tissue sections were taken for histologic analysis. Non-tumor-bearing animals were used to establish maximally tolerated dosages.
Groups of male rats (350-400 gr) were used, each carrying a single, well-developed, rapidly growing, non-metastatic, subcutaneous Nb2-U17 tumor transplant in the nape of the neck. Non-metastatic Nb2-U17 tumors were employed to avoid dissemination of cells from the tumor which would interfere with measurements of drug-induced changes in tumor mass. […] The animals were treated for a 7-day period, with drug administration taking place at approximately 12 hour intervals in an attempt to maintain elevated levels of the drug in the circulation.

The conditions of series [4]: rat, in vivo, ip. An excerpt: 2% CMC or saline were used for controls. […] Food and water were provided ad libitum. […] Tissue sections were taken for histologic analysis.
Reduced tumor growth in the animals was therefore not the result of drug-induced dissemination of tumor cells from the transplant site, but reflected genuine, tumor growth inhibition. […] During therapy the animals remained active and their eyes stayed bright; there was no evidence of diarrhea, or changes in the appearance of their fur.

The test system of series [5] is MDA-MB-231 human breast carcinoma cell line. The experiment in a line: Cell proliferation of MDA-MB-231 breast carcinoma cells. The format is cell-based. As to conditions: 2-ME 60 μM.
Excerpt: as §2

The test system of series [6] is DoHH2 cells (human B-cell non-Hodgkin's lymphoma). In words: Culture growth inhibition assay in DoHH2 cultures. Type of series: cell-based. As to conditions: for Growth-inhibitory activity: medium with 5% FBS + 5% horse serum (FIG. 4). Here is the method: as §1, with “Canada. DoHH2 cell suspension cultures (doubling time ca. 20 hours) were maintained in RPMI-1640 medium (Stem Cell Technology, Vancouver, B.C., Canada) containig fetal bovine serum (5%), horse serum (5%) and antibiotics.” for “Canada.”
Assays using DoHH2 cells were similarly performed, using their maintenance medium; Cin=ca. 1.5×10^5 cells/ml (see: Kluin-Nelemans, H. C. et al. (1991) Leukemia 5:221.)

Entries after “also recorded” stand apart in the source; their conditions may differ.

Consider `Nc1ccc(O)c(C(=O)O)c1` [5-aminosalicylic acid], for which, in series [1] (listed as 5-ASA), the Growth-inhibitory activity result was “devoid of growth-inhibitory activity”.

As to `CC(=O)Oc1ccccc1C(=O)O` [Acetylsalicylic acid], the inhibition at 3000 µM in series [1] (Rattus norvegicus, 3 mM (FIG. 1), read-out: Inhibition of culture growth at therapeutic concentration) is around 50%. Besides, in series [1] (Rattus norvegicus), the IC50 was found to be 3.09 ± 0.28 mM. Also, in series [2], the “Therapeutic drug levels in plasma” value is 1 to 3 mM.

On to `COc1ccc2c(c1)c(CC(=O)O)c(C)n2C(=O)c1ccc(Cl)cc1` [Indomethacin], for which the inhibition at 20 µM in series [1] (Rattus norvegicus, 0.02 mM (FIG. 1), read-out: Inhibition of culture growth at therapeutic concentration) was 5 to 10%. Besides, the IC50 in series [1] (Rattus norvegicus) was 0.15 ± 0.01 mM. For the same compound, in series [2], the “Therapeutic drug levels in plasma” value was 0.005 to 0.02 mM.

For the compound `N[C@@H](CCC(=O)O)C(=O)[O-].[Na+]` [Monosodium glutamate], the Inhibition of proliferation entry in series [3] (10 mM) is given as “inhibited proliferation in MCF-7 cells to an extent similar to that observed for sulfasalazine”. Moreover, the “Effect of 2-ME addition on inhibition of proliferation” value in series [3] (10 mM, 2-ME added) is listed as “completely negated this effect”.

For the compound `O=C([O-])c1ccccc1O.[Na+]` [Salicylate, sodium, sodium salicylate], the “Inhibition of tumor growth” value in the series on Nb2-U17 tumor transplant (i.p. 150 mg/kg body wt, 7 days, 150 mg/kg) is listed as “did not inhibit tumor growth; also recorded: had no effect”.

Take `O=C(O)c1cc(/N=N/c2ccc(S(=O)(=O)Nc3ccccn3)cc2)ccc1O` [Sulfasalazine]: in series [4] (Nb, 7 days), the Maximally tolerated dose is reported as 250 mg/kg body wt, b.i.d. The Side effects result in series [4] is recorded as “no major side effects”. The “Antagonism of inhibitory action by 2-ME” value in series [5] is on record as “completely antagonized”. Besides, the “Effect on culture growth” value in series [1] (0.15 mM, 45 hour experiment) is on record as “only partially arrested growth”. Besides, the Cell lysis entry in series [1] (0.2 mM, period 24-45 hours) is on record as “induced severe cell lysis”; in series [6] (1.5% FBS, 0.05 mM, at hr 45 (FIG. 4)) it was “extensive cell lysis”. Further, the figures for the Growth-inhibitory activity result in series [1], in series [6] and in series [6] (listed as sulfasalazine) were “highly potent”, “sensitivity to the drug which was similar to that of rat Nb2 lymphoma cells” and “markedly inhibited the growth”, respectively. The “Change of growth-inhibitory effect by elevated cystine” value in series [1] (cystine at ca. 3-fold elevated levels (FIG. 5)) is reported as “substantially reduced”. For the same compound, in series [3] (Homo sapiens, MCF7, MCF-7, read-out: IC50, growth inhibition), the IC50 came out at 500 ± 100 µM. Further, the “Average tumor size after 7 days” value was 3.43 gr in the series on Nb2-U17 tumor transplant (i.p. 200 mg/kg body wt, start 0.93 gr) and 2.65 gr in the series on Nb2-U17 tumor transplant (i.p. 250 mg/kg body wt, start 0.60 gr). The “Tumor growth suppression in three of the 13 cases” value with Nb2-U17 tumor transplant (i.p. 200 or 250 mg/kg body wt, 7 days) is listed as 90-100%. Further, the Lymphoma growth-inhibitory effect entry in the series on Nb2-U17 tumor transplant (oral 500 mg/kg body wt, 7 days) was “only minor lymphoma growth-inhibitory effect”.

For `Nc1ccc(S(=O)(=O)Nc2ccccn2)cc1` [sulfapyridine], the Growth-inhibitory activity result in series [1] is reported as “devoid of growth-inhibitory activity”.
